Our source for the IC50 values is patent US6147100A, “Pyrrolidine derivatives having phospholipase A2 inhibitory activity” (Shionogi & Co., Ltd., priority 1997, dated 2000).

For one assay, the target named is T1, cPLA2 (Homo sapiens, UniProt P47712).
T1 sequence (P47712 1-749): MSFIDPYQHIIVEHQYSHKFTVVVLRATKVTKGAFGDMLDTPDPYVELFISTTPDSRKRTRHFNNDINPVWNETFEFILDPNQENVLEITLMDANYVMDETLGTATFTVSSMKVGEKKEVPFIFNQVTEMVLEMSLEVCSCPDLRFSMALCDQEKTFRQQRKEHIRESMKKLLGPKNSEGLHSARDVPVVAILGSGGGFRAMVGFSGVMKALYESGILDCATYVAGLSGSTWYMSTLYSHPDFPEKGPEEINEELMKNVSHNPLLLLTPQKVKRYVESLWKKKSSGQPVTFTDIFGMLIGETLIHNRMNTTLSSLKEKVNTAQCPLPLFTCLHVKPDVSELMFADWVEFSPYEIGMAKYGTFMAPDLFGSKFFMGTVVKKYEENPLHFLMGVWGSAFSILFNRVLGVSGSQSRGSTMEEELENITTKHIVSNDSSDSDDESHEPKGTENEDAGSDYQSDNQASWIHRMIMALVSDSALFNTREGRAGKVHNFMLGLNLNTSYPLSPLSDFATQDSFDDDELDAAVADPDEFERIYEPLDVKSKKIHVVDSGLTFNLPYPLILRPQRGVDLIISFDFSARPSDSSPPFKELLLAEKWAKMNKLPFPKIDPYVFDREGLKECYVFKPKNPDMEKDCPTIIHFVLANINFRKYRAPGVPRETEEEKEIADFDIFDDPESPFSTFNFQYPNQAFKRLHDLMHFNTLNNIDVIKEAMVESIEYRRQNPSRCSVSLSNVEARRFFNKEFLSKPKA
As to the kind of experiment: cPLA2 Inhibitory Activity. The assay is classed as biochemical. The note with it: 1-palmitoyl-2-[14C]-arachidonoyl-sn-glycero-3-phosphocholine 2.5 μM, sn-1,2-dioleoylglycerol 1.25 μM; pH 7.5, 15 min at 37° C. In outline:
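Radiometric assay in 50 mM HEPES pH 7.5 with 1 mM CaCl2, 150 mM NaCl, 0.1 mg/ml BSA and 1.7 mM DTT; compound and substrate added, reaction started with enzyme, 15 min at 37° C. Released fatty acids extracted (Dole method), counted by liquid scintillation versus no-compound control.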

The test system of assay [1] is production of prostaglandin E2 by human fibroblasts. As to the kind of experiment: Inhibition of Production of Prostaglandin E2 in Human Fibroblasts (IL-1 stimulation). The assay is classed as cell-based. Conditions: Fibroblast; human fibroblasts under stimulation with IL-1. Here is the method: Test Example 2 Inhibition of Production of Prostaglandin E2 in Human Fibroblasts.
In order to examine the availability of the composition for inhibiting cytosolic phospholipase A2 (cPLA2) on the cells, the compounds of the present invention were tested for the effect on the production of prostaglandin E2 by human fibroblasts under the stimulation with IL-1 according to the method of J. M. Dayer et al (CACHECTIN/TUMOR NECROSIS FACTOR STIMULATES COLLAGENASE AND PROSTAGLANDIN E2 PRODUCTION BY HUMAN SYNOVIAL CELLS AND DERMAL FIBROBLASTS; J. M. Dayer, B, Beutler and A, Cerami, J. EXP. Med., 1985, 162, 2163-2168.).

For the compound `O=C1NC(=O)/C(=C/c2ccc(C(=O)NC[C@@H]3C[C@@H](OCc4ccccc4-c4cccs4)CN3C(=O)c3ccccc3C(=O)c3ccc(F)cc3)cc2)S1` [Compound A-37], the IC50 is 0.073 µM against cPLA2 and 0.28 µM in assay [1].
On the same counts, the results for `O=C1NC(=O)/C(=C/c2ccc(C(=O)NC[C@@H]3C[C@@H](OCc4ccccc4-c4ccsc4)CN3C(=O)c3ccccc3C(=O)c3ccc(F)cc3)cc2)S1` [Compound A-38] are 0.084 µM and 0.43 µM.
The like results for `O=C1NC(=O)/C(=C/c2ccc(C(=O)NC[C@@H]3C[C@@H](OCc4ccc5ccccc5c4-c4ccccc4)CN3C(=O)c3ccccc3C(=O)c3ccc(F)cc3)cc2)S1` [Compound A-39] were, in that order, 0.025 µM and 0.33 µM.
The like results for `O=C1NC(=O)/C(=C/c2ccc(C(=O)NC[C@@H]3C[C@@H](OCc4ccccc4-c4cc5ccccc5o4)CN3C(=O)c3ccccc3C(=O)c3ccc(F)cc3)cc2)S1` [Compound A-40] were, in that order, 0.036 µM and 0.61 µM.
With `COc1ccccc1-c1ccccc1CO[C@@H]1C[C@@H](CNC(=O)c2ccc(/C=C3\SC(=O)NC3=O)cc2)N(C(=O)c2ccccc2C(=O)c2ccc(F)cc2)C1` [Compound A-41], the IC50 turned out to be 0.056 µM against cPLA2 and 1.2 µM in assay [1].
On the same counts, the results for `CN(Cc1ccccc1)c1ccccc1CO[C@@H]1C[C@@H](CNC(=O)c2ccc(/C=C3\SC(=O)NC3=O)cc2)N(C(=O)c2ccccc2C(=O)c2ccc(F)cc2)C1` [Compound A-43] are 0.052 µM and 0.56 µM.
On the same counts, the results for `O=C1NC(=O)/C(=C/c2ccc(C(=O)NC[C@@H]3C[C@@H](OCc4ccccc4-c4cccc(C(F)(F)F)c4)CN3C(=O)c3ccccc3C(=O)c3ccc(F)cc3)cc2)S1` [Compound A-44] are 0.057 µM and 0.55 µM.
The like results for `O=C1NC(=O)/C(=C/c2ccc(C(=O)NC[C@@H]3C[C@@H](OCc4ccccc4-c4cccc([N+](=O)[O-])c4)CN3C(=O)c3ccccc3C(=O)c3ccc(F)cc3)cc2)S1` [Compound A-45] were, in that order, 0.074 µM and 0.38 µM.
Consider `O=C1NC(=O)/C(=C/c2ccc(C(=O)NC[C@@H]3C[C@@H](OCc4ccccc4Oc4ccccc4)CN3C(=O)c3ccccc3C(=O)c3ccc(F)cc3)cc2)S1` [Compound A-48], for which the IC50 against cPLA2 amounted to 0.09 µM; in assay [1], 0.62 µM.
The like results for `O=C1NC(=O)C(=C/C=C/c2ccc(C(=O)NC[C@@H]3C[C@@H](OCc4ccccc4-c4ccccc4)CN3C(=O)c3ccccc3C(=O)c3ccc(F)cc3)cc2)S1` [Compound A-49] were, in that order, 0.049 µM and 0.12 µM.
The like results for `O=C(/C=C/c1ccc(/C=C2\SC(=O)NC2=O)cc1)NC[C@@H]1C[C@@H](OCc2ccccc2-c2ccccc2)CN1C(=O)c1ccccc1C(=O)c1ccc(F)cc1` [Compound A-52] were, in that order, 0.053 µM and 0.62 µM.
As to `O=C1NC(=O)/C(=C/c2ccc(C(=O)NC[C@@H]3C[C@@H](OCc4ccccc4-c4ccccc4)CN3C(=O)c3ccccc3C(=O)c3ccc(F)cc3)s2)S1` [Compound A-58], the IC50 at cPLA2 is 0.049 µM; in assay [1], 1.6 µM.
The like results for `O=C1NC(=S)S/C1=C\c1ccc(C(=O)NC[C@@H]2C[C@@H](OCc3ccccc3-c3ccccc3)CN2C(=O)c2ccccc2C(=O)c2ccc(F)cc2)s1` [Compound A-59] were, in that order, 0.047 µM and 0.94 µM.
On the same counts, the results for `O=C1NC(=O)/C(=C/c2ccc(S(=O)(=O)NC[C@@H]3C[C@@H](OCc4ccccc4-c4ccccc4)CN3C(=O)c3ccccc3C(=O)c3ccc(F)cc3)s2)S1` [Compound A-60] are 1.3 µM and 1.3 µM.
On to `O=C1NC(=O)/C(=C/c2ccc(S(=O)(=O)NC[C@@H]3C[C@@H](OCc4ccccc4-c4ccccc4)CN3C(=O)c3ccccc3C(=O)c3ccc(F)cc3)cc2)S1` [Compound A-62], for which the results for the IC50 (against cPLA2; in assay [1]) were 0.26 µM and 1.1 µM, respectively.
The like results for `O=C1NC(=O)/C(=C/c2ccc(C(=O)NC[C@@H]3C[C@@H](Oc4ccccc4-c4ccccc4)CN3C(=O)c3ccccc3C(=O)c3ccc(F)cc3)cc2)S1` [Compound A-67] were, in that order, 0.069 µM and 0.39 µM.
On the same counts, the results for `O=C1NC(=O)/C(=C/c2ccc(C(=O)NC[C@@H]3C[C@@H](Oc4cccc(-c5ccccc5)c4)CN3C(=O)c3ccccc3C(=O)c3ccc(F)cc3)cc2)S1` [Compound A-69] are 0.072 µM and 0.19 µM.
The like results for `O=C1NC(=O)/C(=C/c2ccc(C(=O)NC[C@@H]3C[C@@H](Oc4ccc(-c5ccccc5)cc4)CN3C(=O)c3ccccc3C(=O)c3ccc(F)cc3)cc2)S1` [Compound A-70] were, in that order, 0.09 µM and 0.19 µM.
`O=C1NC(=O)/C(=C/c2ccc(C(=O)NC[C@@H]3C[C@@H](Oc4ccc5ccccc5c4)CN3C(=O)c3ccccc3C(=O)c3ccc(F)cc3)cc2)S1` [Compound A-71]: the figures for the IC50 (against cPLA2; in assay [1]) were 0.19 µM and 0.31 µM, respectively.
As for `O=C1NC(=O)/C(=C/c2ccc(C(=O)NC[C@@H]3C[C@@H](Oc4cccc5ccccc45)CN3C(=O)c3ccccc3C(=O)c3ccc(F)cc3)cc2)S1` [Compound A-73], the IC50 at cPLA2 is 0.11 µM; in assay [1], 0.1 µM.
Consider `CC(C)(C)c1ccccc1O[C@@H]1C[C@@H](CNC(=O)c2ccc(/C=C3\SC(=O)NC3=O)cc2)N(C(=O)c2ccccc2C(=O)c2ccc(F)cc2)C1` [Compound A-75], for which the IC50 at cPLA2 stood at 0.19 µM; in assay [1], 2.2 µM.
Regarding `O=C1NC(=O)/C(=C/c2ccc(C(=O)NC[C@@H]3C[C@@H](Oc4ccccc4C4CCCC4)CN3C(=O)c3ccccc3C(=O)c3ccc(F)cc3)cc2)S1` [Compound A-76], the figures for the IC50 (against cPLA2; in assay [1]) were 0.072 µM and 0.52 µM, respectively.
On the same counts, the results for `O=C1NC(=O)/C(=C/c2ccc(C(=O)NC[C@@H]3C[C@@H](Oc4cccc5c4CCCC5)CN3C(=O)c3ccccc3C(=O)c3ccc(F)cc3)cc2)S1` [Compound A-77] are 0.1 µM and 0.35 µM.
On to `O=C1NC(=O)/C(=C/c2ccc(C(=O)NC[C@@H]3C[C@@H](Oc4ccc5cc(-c6ccccc6)ccc5c4)CN3C(=O)c3ccccc3C(=O)c3ccc(F)cc3)cc2)S1` [Compound A-79], for which the values for the IC50 (against cPLA2; in assay [1]) were 0.02 µM and 0.31 µM, respectively.
The like results for `O=C1NC(=O)/C(=C/c2ccc(C(=O)NC[C@@H]3C[C@@H](Oc4cc(-c5ccccc5)c5ccccc5c4)CN3C(=O)c3ccccc3C(=O)c3ccc(F)cc3)cc2)S1` [Compound A-81] were, in that order, 0.053 µM and 0.35 µM.
On the same counts, the results for `O=C1NC(=O)/C(=C/c2ccc(C(=O)NC[C@@H]3C[C@@H](Oc4ccc(/C=C/c5ccccc5)cc4)CN3C(=O)c3ccccc3C(=O)c3ccc(F)cc3)cc2)S1` [Compound A-82] are 0.05 µM and 0.045 µM.
On the same counts, the results for `O=C1NC(=O)/C(=C/c2ccc(C(=O)NC[C@@H]3C[C@@H](Oc4ccccc4Cc4ccccc4)CN3C(=O)c3ccccc3C(=O)c3ccc(F)cc3)cc2)S1` [Compound A-83] are 0.053 µM and 0.23 µM.
As to `O=C1NC(=O)/C(=C/c2ccc(C(=O)NC[C@@H]3C[C@@H](Oc4cccc(-c5ccc6ccccc6c5)c4)CN3C(=O)c3ccccc3C(=O)c3ccc(F)cc3)cc2)S1` [Compound A-84], the figures for the IC50 (at cPLA2; in assay [1]) were 0.033 µM and 0.25 µM, respectively.
The like results for `O=C1NC(=O)/C(=C/c2ccc(C(=O)NC[C@@H]3C[C@@H](Oc4ccc5ccccc5c4-c4ccccc4)CN3C(=O)c3ccccc3C(=O)c3ccc(F)cc3)cc2)S1` [Compound A-86] were, in that order, 0.028 µM and 0.093 µM.
Take `CN(C)c1cccc(O[C@@H]2C[C@@H](CNC(=O)c3ccc(/C=C4\SC(=O)NC4=O)cc3)N(C(=O)c3ccccc3C(=O)c3ccc(F)cc3)C2)c1` [Compound A-87]: the IC50 against cPLA2 stood at 0.18 µM; in assay [1], 0.33 µM.
As to `CCN(CC)c1cccc(O[C@@H]2C[C@@H](CNC(=O)c3ccc(/C=C4\SC(=O)NC4=O)cc3)N(C(=O)c3ccccc3C(=O)c3ccc(F)cc3)C2)c1` [Compound A-89], the IC50 against cPLA2 was found to be 0.096 µM; in assay [1], 0.49 µM.

What is called IC50 is the concentration at which inhibition is half-maximal. A lower IC50 goes with greater potency.
